Reference: US8821862B2, “Soluble β-N-acetylglucosaminidase based antibiofilm compositions and uses thereof” (Kane Biotech Inc., priority 2002, dated 2014)

Assays:
[1] = test system: biofilm-embedded S. epidermidis; experiment: In vitro biofilm killing assay after DispersinB pre-treatment; format: cell-based, Staphylococcus epidermidis; conditions: 37° C.
Experimental: An in vitro biofilm assay was performed to determine the effect of DispersinB™ pre-treatment on the susceptibility of S. epidermidis to SDS. S. epidermidis biofilm grown in tubes were pretreated with PBS or DispersinB™ (20 μg/ml) for 30 min, and then treated with SDS (0.2 mg/ml) for 5 min at 37° C. […] However, SDS caused a 1.5 log unit decrease in the number of CFUs in tubes pretreated with […] biofilm embedded cells more susceptible to SDS.
An in vitro biofilm assay was performed to determine the effect of DispersinB™ pre-treatment on the susceptibility of biofilm-embedded S. epidermidis to CHX. S. epidermidis biofilm grown in tubes were pretreated with PBS or DispersinB™ (20 μg/ml) for 30 min, and then treated with CHX (0.2 μg/ml) for 5 min at 37° C. […] However, CHX caused a 1.6 log decrease of CFU in tubes pretreated with DispersinB™. DispersinB™ pretreatment made biofilm-embedded cells more susceptible to CHX.
An in vitro biofilm assay was performed to determine the effect of DispersinB™ pre-treatment on the susceptibility of S. epidermidis to BKC. S. epidermidis biofilm grown in tubes were pretreated with PBS or DispersinB™ (20 μg/ml) for 30 min, and then treated with BKC (0.4 μg/ml) for 60 min at 37° C. […] However, BKC caused a 2.2 log decrease in CFU in tubes pretreated with DispersinB™. DispersinB™ pre-treatment made biofilm-embedded cells more susceptible to BKC.
An in vitro biofilm assay was performed to determine the effect of DispersinB™ pre-treatment on susceptibility of S. epidermidis to silver nanopowder (SNP). S. epidermidis biofilm grown in tubes were pretreated with PBS or DispersinB™ (20 μg/ml) for 30 min, and then treated with SNP (0.03125 μg/ml) for 60 min at 37° C. […] However, SNP caused a 1.5 log decrease in CFU in tubes pretreated with DispersinB™. DispersinB™ pre-treatment made biofilm embedded cells more susceptible to SNP treatment.

[2] = test system: biofilm embedded S. aureus; experiment: 12-well microplate biofilm assay with CFU counting; format: cell-based, Staphylococcus aureus; conditions: EGCG 100 ng/ml alone versus DispersinB alone
Experimental: An in vitro microplate assays were performed to determine the effects of a DispersinB™ and EGCG combination on the growth of biofilm embedded S. epidermidis and S. aureus. Overnight cultures of each bacterial strain grown in Tryptic Soy Broth (TSB) were used as inoculum. Biofilm was developed in TSB on a 12-well microplate in the absence and presence of each test compound (50 ng DispersinB™ or 100 ng/ml ECCG) separately and together (DispersinB™+EGCG). The plates were incubated at 37° C. for 24 hours. Medium containing planktonic cells in each well was removed gently and rinsed with sterile water. A known volume of water was added to each well and sonicated for 30 seconds. The contents of each well was transferred into a sterile tube, vortexed for a minute, followed by 10-fold serial dilution, and plated on agar plates using a spreader. After incubating the plates at 37° C. for 24 hours, colony forming units (CFU) were counted.

[3] = test system: biofilm embedded S. epidermidis; experiment: 12-well microplate biofilm assay with CFU counting; format: cell-based, Staphylococcus epidermidis
Experimental: In vitro microplate assays were performed to determine the effect of DispersinB and PyrM combination on the growth of biofilm-embedded S. epidermidis. Overnight growth of S. epidermidis in tryptic soy broth (TSB) was used as inoculum. Biofilm was developed in 12-well microplate in the absence and presence of each test compound (1 μg/ml DispersinB or 8 μg/ml PyrM) separately and together (DispersinB+PyrM). The plates were incubated at 37° C. for 24 h. Medium containing planktonic cells in each well was removed gently and rinsed with sterile water. A known volume of water was added to each well and sonicated for seconds. The contents of each well was transferred into a sterile tube, vortexed for a minute, followed by 10-fold serial dilution, and plated on agar plates using a spreader. After incubating the plates at 37° C. for 24 h, colony-forming units (CFU) were counted.

[4] = test system: A. actinomycetemcomitans CU1000 biofilms; experiment: Biofilm killing assay; format: cell-based; conditions: for decrease in the number of CFU: then 0.01% SDS 5 min
Experimental: Biofilm Killing Assay. […] Tubes were vortexed for 10 s, and 20 μL aliquots of the detached biofilms were transferred to the wells of a flat-bottomed 96-well microtiter plate containing 180 μL of fresh broth. Five serial dilutions (20 μL into 180 μL) were performed directly into adjacent wells. Plates were incubated for 48 h and then rinsed and stained with crystal violet as described above. Wells containing 30-300 biofilm colonies were photographed under a dissecting microscope and counted. In some assays, biofilms were pre-treated with 1 mL of DispersinB™ (20 μg/mL in PBS) for 5 min prior to the SDS treatment. In these assays, a 100 μL quantity of SDS in PBS (at 10 times the test concentration) was added directly to the DispersinB™-treated cell suspension and mixed. After 5 min, tubes were vortexed briefly, and 20-μL aliquots of culture were enumerated as described above. Killing assays were performed in duplicate tubes on at least 5 separate occasions, with similar results.

[5] = test system: A. actinomycetemcomitans planktonic cells; conditions: SDS; Drake et al. 1992, Wade & Addy 1992; cited from earlier work
[6] = test system: A. actinomycetemcomitans strain HW1018 (PGA mutant) biofilms; experiment: Biofilm detachment assay (crystal violet); format: cell-based; conditions: 0.1% SDS in PBS, 5 min; tubes and microplate wells
Excerpt: (§1) Bacterial strains, media, and growth conditions. A. actinomycetemcomitans strain CU1000 (serotype f) was isolated from a person with localized aggressive periodontitis (Fine et al., Microbiol. 1999, 145: 1335-1347). […] An isogenic PGA mutant strain HW1018 (CU1000 pgaC::IS903φKan) was isolated by randomly mutagenizing CU1000 with transposon IS903φKan and selecting mutants that produced white colonies on Congo red agar, as previously described (Kaplan et al., 2003; Kaplan et al., J. Bacteriol. 2004, 186: 8213-8220). Like other pgaC mutant strains, HW1018 was completely deficient in PGA production, but still formed tenacious biofilms on plastic surfaces (Kaplan et al., 2004). Bacteria were grown in trypticase soy broth supplemented with […] and 8 g/L glucose. Solid medium was supplemented with 15 g/L agar. All cultures were incubated statically at 37° C. in 10% CO2.
(§2) Biofilm Cultures. Biofilms were grown in 17 mm×100 mm culture tubes (untreated polystyrene; Falcon #352051) or 96-well microtiter plates (tissueculture-treated polystyrene, flat bottoms; Falcon #353072). Culture vessels were inoculated with a 1:10 dilution of inoculum in fresh broth (1 mL for tubes or 200 μL for microplates) and incubated for 24 h.
(§3) Crystal Violet Assay. Biofilm biomass was visualized and quantitated by means of a crystal violet binding assay as previously described (Kaplan et al., Antimicrob. Agents Chemother. 2004, 48: 2633-2636). Briefly, biofilms were rinsed with water to remove loosely attached cells, stained for 1 min with Gram's crystal violet (200 μL for microplates and 1 mL for tubes), rinsed, dried, and photographed. For quantitation of biofilms grown in microplates, biofilms were de-stained with 200 μL of 33% acetic acid for 5 min, and the absorbance of the crystal violet solution was measured directly in the plate by means of a BioRad Benchmark microtiter plate-reader set at 590 nm. Crystal violet binds to bacterial biofilms, but not to polystyrene (O'Toole & Kolter, Mol. Microbiol. 1998, 28: 449-461).
(§4) Biofilm Detachment Assay. Biofilms were rinsed with water and treated with 200 μL (for microplates) or 1 mL (for tubes) of DispersinB™ (20 μg/mL in PBS) or SDS (0.001-1% in PBS). After a five- or 30-minute incubation at 37° C., biofilms were rinsed with water and stained with crystal violet as described above. In some assays, biofilms were first treated with DispersinB™ for 5 or 30 min, rinsed, and then treated with SDS. All detachment assays were performed in duplicate wells or tubes. All assays were performed on at least 3 separate occasions, with similar results.

[7] = test system: A. actinomycetemcomitans strain CU1000 (wild-type) biofilms; experiment: Biofilm detachment assay (crystal violet); format: cell-based
Excerpt: as §1, §2, §3, §4

[8] = test system: biofilm-embedded S. epidermidis; experiment: In vitro biofilm-dispersal assay in microcentrifuge tubes (sensitivity of biofilm-embedded cells, CFU plating); format: cell-based, Staphylococcus epidermidis; conditions: 3 h, 37° C.
[9] = test system: E. coli csrA luxCDABE kan^r biofilm; experiment: Bioluminescent E. coli biofilm on filter disc, luminescence; format: cell-based; conditions: Table 4, repeated experiment
Excerpt: E. coli TRMG1655 [csrA::kan^r] strain was transformed with transposon, mini-TN5 luxCDABE::kan^r for luciferase expression (Kadurugamuwa et al., 2005, Infect. Immun. 73: 3878-3887), and the operon integrated into the chromosome. Integration was confirmed by amplification of the genomic DNA upstream of the transposon by inverse PCR using Ssp1-digested genomic DNA. Primers UTCF1 (5′-[…]-3′; SEQ ID NO:13) and UTCR (5′-[…]-3′; SEQ ID NO:14) were used to amplify the upstream region using Pfu DNA polymerase (Sigma-Oligosynthesis, St. Louis, Mo.). The lux operon is derived from Photorhabdus luminescence and was obtained from Xenogen Inc. (Alameda, Calif.). These bioluminescent bacteria allow real-time monitoring by noninvasive imaging of biofilms, either in vitro or in vivo.
A cell suspension of 10^6 E. coli csrA luxCDABE kan^r was used to inoculate a filter disc (Millipore Corporation, Billerica, Mass.). The E. coli biofilm was maintained in minimal media (M9) supplemented with 50 μg/ml kanamycin and 100 μg/ml ampicillin. The media were changed every day by transferring the disc to new plate. After 3 days, chemoluminescence activity of the established biofilm was measured using a Typhoon™ imaging scanner (General Electric Healthcare Life Sciences) and ImageQuant TL software (Amersham Biosciences, Sunnyvale, Calif.). The measure luminescence directly correlates with the metabolic activity of the biofilm.
Luminescence was measured at day 0 and was used as the control. Following the measurement of luminescence at day 0, each disc was treated with one of the following—media alone (control) and media containing:
Luminescence was measured every 24 hours followed by replacing the media. Thus, every 24 h following the measurement of the luminescence, 10 μl each of the different solutions was applied to the plate and the biofilm disc was placed on top of the drop everyday. The quantitative analysis of the biofilm luminescence from each day was used to compare the biofilm activity after treatment with the different treatments.
The experiments were repeated using the same E. coli strain csrA luxCDABE kan^r and protocols. Biofilm discs were pulsed with media alone (control) and media containing: […]

[10] = BisEDT 50 μg/ml, DispersinB 50 μg/ml, phage cocktail 10^8

[H]/N=C(\N/C(=N/[H])NCCCCCCNC(=N)NC(=N)Nc1ccc(Cl)cc1)Nc1ccc(Cl)cc1 [CHX, chlorhexidine]
killing of S. epidermidis biofilm ([1]; CHX alone, 0.2 μg/ml, 5 min, PBS pretreatment): did not significantly kill | decrease of CFU ([1]; tubes pretreated with DispersinB 20 μg/ml 30 min, then CHX 0.2 μg/ml 5 min): 1.6 log

O=C(O[C@@H]1Cc2c(O)cc(O)cc2O[C@@H]1c1cc(O)c(O)c(O)c1)c1cc(O)c(O)c(O)c1 [EGCG, Epigallocatechin gallate]
inhibiting the growth of biofilm embedded S. aureus, compound alone [2]: more effective than DispersinB™ | inhibiting the growth of biofilm embedded S. epidermidis, compound alone ([3]; EGCG 100 ng/ml alone versus DispersinB alone): more effective than DispersinB™

O=C1C=CC(=O)N1c1ccc2ccc3cccc4ccc1c2c34 [PyrM, N-(1-pyrenyl)maleimide]
inhibiting the growth of biofilm-embedded S. epidermidis, compound alone ([3]; 8 μg/ml PyrM alone versus 1 μg/ml DispersinB alone): more effective than DispersinB

CCCCCCCCCCCCOS(=O)(=O)[O-].[Na+] [SDS, sodium dodecyl sulfate]
killing of biofilm-embedded S. epidermidis ([1]; SDS alone, 0.2 mg/ml, 5 min, PBS pretreatment): did not significantly kill | decrease in the number of CFUs ([1]; tubes pretreated with DispersinB 20 μg/ml 30 min, then SDS 0.2 mg/ml 5 min): 1.5 log unit | killing of A. actinomycetemcomitans biofilms ([4]; SDS alone, 0.01%, 5 min, mock pre-treatment): did not significantly kill | decrease in the number of CFU ([4]; tubes pre-treated with DispersinB 20 μg/mL for 5 min): 2 log-unit | decrease in the number of CFU ([4]; tubes pre-treated with DispersinB 20 μg/mL for 30 min): 4 log-unit | MIC against planktonic cells [5]: 0.01% | detachment of PGA mutant biofilms [6]: rapid detachment | detachment of wild-type biofilms by SDS ([7]; 0.001-1% SDS, 5 min, microplate wells, mock pretreatment): resistant to detachment at all concentrations of SDS | attachment of wild-type biofilms ([7]; 0.1% SDS in PBS, 5 min, tubes and microplate wells): no effect | SDS concentrations at which biofilms were resistant to detachment ([7]; wild-type biofilms pre-treated with DispersinB 20 μg/mL 30 min, then SDS 5 min, microplate wells): < 0.04% | SDS concentration of transition from SDS-resistant to SDS-sensitive ([7]; wild-type biofilms pre-treated with DispersinB, same transition expressed in mM): 1.4 to 2.4 mM

O=C1C=CC(=O)N1c1ccccc1N1C(=O)C=CC1=O [oPDM, N,N-(1,2 phenylene)dimaleimide]
inhibiting the growth of biofilm-embedded S. epidermidis, compound alone ([3]; 625 μg/ml oPDM alone versus 1 μg/ml DispersinB alone): more effective than DispersinB

OC[C@@H](O)[C@H](O)[C@@H](O)CO [xylitol]
inhibitory effect on biofilm-embedded S. epidermidis ([8]; 5% xylitol in combination with DispersinB 20 μg/ml): slightly enhanced the inhibitory effect

benzalkonium chloride [BKC]
killing of biofilm-embedded S. epidermidis ([1]; BKC alone, 0.4 μg/ml, 60 min, PBS pretreatment): did not significantly kill | decrease in CFU ([1]; tubes pretreated with DispersinB 20 μg/ml 30 min, then BKC 0.4 μg/ml 60 min): 2.2 log

bismuth ethanedithiol [BisEDT]
luminescence, Day 1 [9, 10]: 245.27 RLU | luminescence, Day 2 [9, 10]: 83.51 RLU | luminescence, Day 3 [9, 10]: 8.02 RLU | luminescence, Day 4 [9, 10]: 47.62 RLU | luminescence, Day 0 ([9]; Day 0, before treatment (baseline)): 1815.26 RLU

glucose oxidase
inhibitory effect on biofilm-embedded S. epidermidis ([8]; glucose oxidase 10 U/m in combination with DispersinB 20 μg/ml): enhanced the inhibitory effect
